Laboratory results as given in ChEMBL document CHEMBL1150242, “Subinhibitory concentrations of antibiotics induce phenazine production in a marine Streptomyces sp” (2008).
The source made the active and inactive calls. The rule behind the calls is not given here.

Columns and labels:
Mammaliicoccus lentus = assay: Antibacterial activity against Staphylococcus lentus; type: functional
Bacillus subtilis = assay: Antibacterial activity against Bacillus subtilis; type: functional
Escherichia coli = assay: Antibacterial activity against Escherichia coli; type: functional, organism-based
Pseudomonas fluorescens = assay: Antibacterial activity against Pseudomonas fluorescens; type: functional, organism-based
Pseudomonas syringae = assay: Antibacterial activity against Pseudomonas syringae; type: functional, organism-based
Xanthomonas campestris = assay: Antibacterial activity against Xanthomonas campestris; type: functional, organism-based
Erwinia amylovora = assay: Antibacterial activity against Erwinia amylovora; type: functional, organism-based
Ralstonia solanacearum = assay: Antibacterial activity against Ralstonia solanacearum; type: functional, organism-based
Nakaseomyces glabratus = assay: Antibacterial activity against Candida glabrata; type: functional, organism-based

How did the Activity (Mammaliicoccus lentus) turn out when `COC(=O)c1cccc2nc3c(C(C(=O)OC)C(O)CCCC(C)C)cccc3nc12` (stereo unspecified) [STREPTOPHENAZINE A] was run?
The Activity was 62.5 µg/mL.

And the Activity (Bacillus subtilis)?
The Activity was 46.9 µg/mL.

What about the Activity (Escherichia coli) of the same compound?
Its Activity is “inactive”.

And the Activity (Pseudomonas fluorescens)?
Its Activity is “inactive”.

What about the Activity (Pseudomonas syringae) of the same compound?
The Activity was “inactive”.

What about the Activity (Xanthomonas campestris) of the same compound?
Its Activity is “inactive”.

What about the Activity (Erwinia amylovora) of the same compound?
Its Activity is “inactive”.

And the Activity (Ralstonia solanacearum)?
Its Activity is “inactive”.

And the Activity (Nakaseomyces glabratus)?
Its Activity is “inactive”.

Which results are given for `CCCCCCC(O)C(C(=O)OC)c1cccc2nc3c(C(=O)OC)cccc3nc12` (stereo unspecified) [STREPTOPHENAZINE B]?
Activity (Mammaliicoccus lentus): 62.5 µg/mL; Activity (Bacillus subtilis): inactive; Activity (Escherichia coli): inactive; Activity (Pseudomonas fluorescens): inactive; Activity (Pseudomonas syringae): inactive; Activity (Xanthomonas campestris): inactive; Activity (Erwinia amylovora): inactive; Activity (Ralstonia solanacearum): inactive; Activity (Nakaseomyces glabratus): inactive

`COC(=O)C(c1cccc2nc3c(C(=O)O)cccc3nc12)C(O)CCCC(C)C` (stereo unspecified) [STREPTOPHENAZINE C] was tested. Which Activity (Mammaliicoccus lentus) did it give?
The Activity was 46.9 µg/mL.

What about the Activity (Bacillus subtilis) of the same compound?
Its Activity is 15.6 µg/mL.

What about the Activity (Escherichia coli) of the same compound?
The Activity was “inactive”.

And the Activity (Pseudomonas fluorescens)?
The Activity was “inactive”.

What about the Activity (Pseudomonas syringae) of the same compound?
Its Activity is “inactive”.

What about the Activity (Xanthomonas campestris) of the same compound?
The Activity was “inactive”.

What about the Activity (Erwinia amylovora) of the same compound?
The Activity was “inactive”.

What about the Activity (Ralstonia solanacearum) of the same compound?
Its Activity is “inactive”.

What about the Activity (Nakaseomyces glabratus) of the same compound?
Its Activity is “inactive”.

Which Activity (Bacillus subtilis) does the source give for `COC(=O)c1cccc2nc3c(C(C(=O)OC)C(O)CCC(C)C)cccc3nc12` (stereo unspecified) [STREPTOPHENAZINE D] here?
The Activity was 62.5 µg/mL.

And the Activity (Nakaseomyces glabratus)?
The Activity was “inactive”.

How did the Activity (Bacillus subtilis) turn out when `CCCCC(O)C(C(=O)OC)c1cccc2nc3c(C(=O)OC)cccc3nc12` (stereo unspecified) [STREPTOPHENAZINE E] was run?
Its Activity is 62.5 µg/mL.

And the Activity (Nakaseomyces glabratus)?
The Activity was “inactive”.

What does the source list for `COC(=O)c1cccc2nc3c(C(C(=O)OC)C(O)CCCCC(C)C)cccc3nc12` (stereo unspecified) [STREPTOPHENAZINE F]?
Activity (Mammaliicoccus lentus): 62.5 µg/mL; Activity (Bacillus subtilis): inactive; Activity (Escherichia coli): inactive; Activity (Pseudomonas fluorescens): inactive; Activity (Pseudomonas syringae): inactive; Activity (Xanthomonas campestris): inactive; Activity (Erwinia amylovora): inactive; Activity (Ralstonia solanacearum): inactive; Activity (Nakaseomyces glabratus): inactive

With `CCC(C)CCCC(O)C(C(=O)OC)c1cccc2nc3c(C(=O)OC)cccc3nc12` (stereo unspecified) [STREPTOPHENAZINE G] as the compound, how does the Activity (Mammaliicoccus lentus) read?
The Activity was 62.5 µg/mL.

And the Activity (Bacillus subtilis)?
Its Activity is “inactive”.

And the Activity (Escherichia coli)?
The Activity was “inactive”.

And the Activity (Pseudomonas fluorescens)?
The Activity was “inactive”.

What about the Activity (Pseudomonas syringae) of the same compound?
The Activity was “inactive”.

What about the Activity (Xanthomonas campestris) of the same compound?
Its Activity is “inactive”.

What about the Activity (Erwinia amylovora) of the same compound?
The Activity was “inactive”.

And the Activity (Ralstonia solanacearum)?
The Activity was “inactive”.

What about the Activity (Nakaseomyces glabratus) of the same compound?
The Activity was “inactive”.

For `COC(=O)c1cccc2nc3c(C(C(=O)OC)C(O)CCCC(C)(C)O)cccc3nc12` (stereo unspecified) [STREPTOPHENAZINE H], which Activity (Bacillus subtilis) is on record?
Its Activity is 15.6 µg/mL.

And the Activity (Nakaseomyces glabratus)?
Its Activity is “inactive”.
